From patent US20140357655A1, “SPIROINDOLINE DERIVATIVES AS GONADOTROPIN- RELEASING HORMONE RECEPTOR ANTAGONISTS” (Bayer Intellectual Property GmbH, priority 2012, published 2014)

Molecular target: T1, human GnRH receptor (Homo sapiens, UniProt P30968)
T1 sequence (P30968 1-328): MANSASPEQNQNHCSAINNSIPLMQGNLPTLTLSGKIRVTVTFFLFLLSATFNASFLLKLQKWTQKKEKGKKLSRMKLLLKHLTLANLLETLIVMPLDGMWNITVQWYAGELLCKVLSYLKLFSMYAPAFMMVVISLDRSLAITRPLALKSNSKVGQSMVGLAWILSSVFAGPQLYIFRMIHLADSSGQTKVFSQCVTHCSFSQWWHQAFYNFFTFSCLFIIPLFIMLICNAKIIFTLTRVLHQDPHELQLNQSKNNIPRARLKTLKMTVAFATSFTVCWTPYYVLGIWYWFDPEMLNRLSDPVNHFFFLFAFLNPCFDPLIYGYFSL
Test: IP-One HTRF assay with buserelin (at EC80) stimulation
Assay type: cell-based
Details: CHO cells stably expressing human GnRH receptor, read-out: Potency in IP-One HTRF assay, given as IC50
Outline: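 CHO cells stably expressing human GnRH receptor, preincubated 1 h at 37° C with IP1-d2, were exposed to compound and buserelin at EC80 for 1 h at 37° C. After lysis with Tb-anti-IP1 antibody (1 h, 22° C), 665/620 nm HTRF ratio read; 10 concentrations, 20 μM–1 nM, duplicates, 4-parameter IC50.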

| SMILES | IC50 [nM] |
| --- | --- |
| COc1cccc(S(=O)(=O)N2c3ccc(C(=O)NCc4ccccc4F)cc3C3(CCS(=O)(=O)CC3)C2C2CC2)c1 (single isomer, unassigned) [Example 47.2, 2-cyclopropyl-N-(2-fluorobenzyl)-1-[(3-methoxyphenyl)sulfonyl]-1,2,2′,3′,5′,6′-hexahydrospiro[indole-3,4′-thiopyran]-5-carboxamide 1′,1′-dioxide] | 8870 |
| COC(=O)c1cccc(S(=O)(=O)N2c3ccc(C(=O)NCc4ccccc4Cl)cc3C3(CCS(=O)(=O)CC3)C2C2CC2)c1 (stereo not drawn) [Example 60, methyl 3-({5-[(2-chlorobenzyl)carbamoyl]-2-cyclopropyl-1′,1′-dioxido-2′,3′,5′,6′-tetrahydrospiro[indole-3,4′-thiopyran]-1(2H)-yl}sulfonyl)benzoate] | 192 |
| O=C(NC1(c2ccccc2Cl)CC1)c1ccc2c(c1)C1(CCS(=O)(=O)CC1)C(C1CC1)N2S(=O)(=O)c1ccc(F)cc1 (stereo not drawn) [Example 21, N-[1-(2-chlorophenyl)cyclopropyl]-2-cyclopropyl-1-[(4-fluorophenyl)sulfonyl]-1,2,2′,3′,5′,6′-hexahydrospiro[indole-3,4′-thiopyran]-5-carboxamide 1′,1′-dioxide] | 3040 |
| CC1N(S(=O)(=O)c2ccc(F)cc2)c2ccc(C(=O)NCc3ncccc3C(F)(F)F)cc2C12CCOCC2 (stereo not drawn) [Example 3, 1-[(4-fluorophenyl)sulfonyl]-2-methyl-N-{[3-(trifluoromethyl)pyridin-2-yl]methyl}-1,2,2′,3′,5′,6′-hexahydrospiro[indole-3,4′-pyran]-5-carboxamide] | 584 |
| COc1cccc(S(=O)(=O)N2c3ccc(C(=O)NCc4ccc(F)cc4Cl)cc3C3(CCS(=O)(=O)CC3)C2C2CC2)c1 (single isomer, unassigned) [Example 46.2, N-(2-chloro-4-fluorobenzyl)-2-cyclopropyl-1-[(3-methoxyphenyl)sulfonyl]-1,2,2′,3′,5′,6′-hexahydrospiro[indole-3,4′-thiopyran]-5-carboxamide 1′,1′-dioxide] | 732 |
| CC1N(S(=O)(=O)c2ccc(F)cc2)c2ccc(C(=O)NCc3ccccc3Cl)cc2C12CCOCC2 (stereo not drawn) [Example 2, N-(2-chlorobenzyl)-1-[(4-fluorophenyl)sulfonyl]-2-methyl-1,2,2′,3′,5′,6′-hexahydrospiro[indole-3,4′-pyran]-5-carboxamide] | 189 |
| O=C(NCc1ccccc1C(F)(F)F)c1ccc2c(c1)C1(CCS(=O)(=O)CC1)C(C1CC1)N2S(=O)(=O)c1ccc(F)cc1 (stereo not drawn) [Example 32, 2-cyclopropyl-1-[(4-fluorophenyl)sulfonyl]-N-[2-(trifluoromethyl)benzyl]-1,2,2′,3′,5′,6′-hexahydrospiro[indole-3,4′-thiopyran]-5-carboxamide 1′,1′-dioxide] | 58 |
| O=C(NCC1CC1)c1ccc2c(c1)C1(CCS(=O)(=O)CC1)C(C1CC1)N2S(=O)(=O)c1ccc(F)cc1 (single isomer, unassigned) [Example 35.1, 2-cyclopropyl-N-(cyclopropylmethyl)-1-[(4-fluorophenyl)sulfonyl]-1,2,2′,3′,5′,6′-hexahydrospiro[indole-3,4′-thiopyran]-5-carboxamide 1′,1′-dioxide] | 394 |
| CC1N(S(=O)(=O)c2ccc(F)cc2)c2ccc(C(=O)NCc3ccc(F)cc3)cc2C12CCOCC2 (stereo not drawn) [Example 7, N-(4-fluorobenzyl)-1-[(4-fluorophenyl)sulfonyl]-2-methyl-1,2,2′,3′,5′,6′-hexahydrospiro[indole-3,4′-pyran]-5-carboxamide] | 1060 |
| C=CCC1N(S(=O)(=O)c2ccc(F)cc2)c2ccc(C(=O)Nc3cccc(C(=O)OC)c3)cc2C12CCS(=O)(=O)CC2 (stereo not drawn) [Example 58, methyl 3-[({1-[(4-fluorophenyl)sulfonyl]-1′,1′-dioxido-2-(prop-2-en-1-yl)-1,2,2′,3′,5′,6′-hexahydrospiro[indole-3,4′-thiopyran]-5-yl}carbonyl)amino]benzoate] | 41 |
| O=C(NCc1ncc(F)cc1Cl)c1ccc2c(c1)C1(CCS(=O)(=O)CC1)C(C1CC1)N2S(=O)(=O)c1ccc(F)cc1 (stereo not drawn) [Example 17, N-[(3-chloro-5-fluoropyridin-2-yl)methyl]-2-cyclopropyl-1-[(4-fluorophenyl)sulfonyl]-1,2,2′,3′,5′,6′-hexahydrospiro[indole-3,4′-thiopyran]-5-carboxamide 1′,1′-dioxide] | 184 |
| O=C(O)c1cccc(NC(=O)c2ccc3c(c2)C2(CCS(=O)(=O)CC2)C(C2CC2)N3S(=O)(=O)c2cccc(OC(F)(F)F)c2)c1 (stereo not drawn) [Example 83, 3-{[(2-cyclopropyl-1′,1′-dioxido-1-{[3-(trifluoromethoxy)phenyl]sulfonyl}-1,2,2′,3′,5′,6′-hexahydrospiro[indole-3,4′-thiopyran]-5-yl)carbonyl]amino}benzoic acid] | 140 |
| COc1cccc(S(=O)(=O)N2c3ccc(C(=O)NCc4ncccc4C(F)(F)F)cc3C3(CCS(=O)(=O)CC3)C2C2CC2)c1 (single isomer, unassigned) [Example 39.1, 2-cyclopropyl-1-[(3-methoxyphenyl)sulfonyl]-N-{[3-(trifluoromethyl)pyridin-2-yl]methyl}-1,2,2′,3′,5′,6′-hexahydrospiro[indole-3,4′-thiopyran]-5-carboxamide 1′,1′-dioxide] | 40 |
| O=C(NCc1ccccc1Cl)c1ccc2c(c1)C1(CCS(=O)(=O)CC1)C(C1CC1)N2S(=O)(=O)c1cccc(OC(F)F)c1 (stereo not drawn) [Example 86, N-(2-chlorobenzyl)-2-cyclopropyl-1-{[3-(difluoromethoxy)phenyl]sulfonyl}-1,2,2′,3′,5′,6′-hexahydrospiro[indole-3,4′-thiopyran]-5-carboxamide 1′,1′-dioxide] | 196 |
| C=CCC1N(S(=O)(=O)c2ccc(F)cc2)c2ccc(C(=O)Nc3cccc(C(=O)O)c3)cc2C12CCS(=O)(=O)CC2 (stereo not drawn) [Example 59, 3-[({1-[(4-fluorophenyl)sulfonyl]-1′,1′-dioxido-2-(prop-2-en-1-yl)-1,2,2′,3′,5′,6′-hexahydrospiro[indole-3,4′-thiopyran]-5-yl}carbonyl)amino]benzoic acid] | 80 |
| COC(=O)c1cccc(NC(=O)c2ccc3c(c2)C2(CCS(=O)(=O)CC2)C(C2CC2)N3S(=O)(=O)c2cccc(OC(F)F)c2)c1 (stereo not drawn) [Example 89, methyl 3-{[(2-cyclopropyl-1-{[3-(difluoromethoxy)phenyl]sulfonyl}-1′,1′-dioxido-1,2,2′,3′,5′,6′-hexahydrospiro[indole-3,4′-thiopyran]-5-yl)carbonyl]amino}benzoate] | 134 |
| CC(C)(NC(=O)c1ccc2c(c1)C1(CCS(=O)(=O)CC1)C(C1CC1)N2S(=O)(=O)c1ccc(F)cc1)c1ccc(F)cc1 (stereo not drawn) [Example 20, 2-cyclopropyl-N-(4-fluoro-α,α-dimethylbenzyl)-1-[(4-fluorophenyl)sulfonyl]-1,2,2′,3′,5′,6′-hexahydrospiro[indole-3,4′-thiopyran]-5-carboxamide 1′,1′-dioxide] | 346 |
| O=C(NCc1ncc(F)cc1Cl)c1ccc2c(c1)C1(CCS(=O)(=O)CC1)C(C1CC1)N2S(=O)(=O)c1ccc(F)cc1 (single isomer, unassigned) [Example 17.1, N-[(3-chloro-5-fluoropyridin-2-yl)methyl]-2-cyclopropyl-1-[(4-fluorophenyl)sulfonyl]-1,2,2′,3′,5′,6′-hexahydrospiro[indole-3,4′-thiopyran]-5-carboxamide 1′,1′-dioxide] | 139 |
